SMILES strings stand for the structures. Some results are limits rather than exact numbers.

The text below walks through data of patent publication US12545673B2, “Imidazopyridine derivative and pharmaceutical composition comprising same as active ingredient” (TSD LIFE SCIENCES CO., LTD., priority 2019, dated 2026).

In one assay the target is MLK3 (Homo sapiens (Human), UniProt Q16584). In words: Evaluation of inhibitory activity of enzyme units, MLK3 ([γ-33P]-ATP filter assay). As to conditions: read-out: IC50(nM) MLK3.
MLK3, sequence (Q16584 whole entry, looked up): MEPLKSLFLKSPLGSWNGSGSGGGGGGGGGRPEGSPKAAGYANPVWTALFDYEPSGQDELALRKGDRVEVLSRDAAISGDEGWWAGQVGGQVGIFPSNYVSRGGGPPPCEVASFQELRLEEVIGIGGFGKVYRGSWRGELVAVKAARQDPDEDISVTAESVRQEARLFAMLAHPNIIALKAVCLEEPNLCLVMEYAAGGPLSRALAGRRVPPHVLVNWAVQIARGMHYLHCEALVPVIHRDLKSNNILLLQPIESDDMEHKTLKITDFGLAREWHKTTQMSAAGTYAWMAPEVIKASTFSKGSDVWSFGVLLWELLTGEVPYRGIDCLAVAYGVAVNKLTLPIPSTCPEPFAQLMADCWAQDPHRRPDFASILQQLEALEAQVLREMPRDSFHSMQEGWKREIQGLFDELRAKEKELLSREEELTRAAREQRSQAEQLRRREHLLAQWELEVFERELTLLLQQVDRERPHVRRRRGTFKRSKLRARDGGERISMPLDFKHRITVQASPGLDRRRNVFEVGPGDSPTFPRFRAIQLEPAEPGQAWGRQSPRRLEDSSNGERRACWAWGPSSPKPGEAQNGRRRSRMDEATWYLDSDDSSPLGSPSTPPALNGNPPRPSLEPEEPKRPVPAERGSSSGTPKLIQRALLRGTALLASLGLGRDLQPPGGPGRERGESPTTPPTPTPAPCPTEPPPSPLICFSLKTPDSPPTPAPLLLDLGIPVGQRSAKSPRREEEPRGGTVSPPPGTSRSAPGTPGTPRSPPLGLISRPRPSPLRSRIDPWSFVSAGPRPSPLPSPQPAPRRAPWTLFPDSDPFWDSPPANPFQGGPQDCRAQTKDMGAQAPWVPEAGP
Assay [1] relates to acute lymphoblastic leukemia cell line Jurkat. As to the kind of experiment: Cancer cell proliferation inhibitory activity evaluation 2 (CCK-8), Jurkat. It counts as cell-based. As to conditions: Homo sapiens, 10 μM, 72 hours, CCK-8, read-out: Cancer cell proliferation inhibitory activity Jurkat. As for the experimental part:
(§1) In order to identify whether the compounds have anticancer activity, the acute myeloid leukemia cell line U937, the acute lymphoblastic leukemia cell line Jurkat, the gastric cancer cell lines AGS, […], and the human lung cancer cell line A549 were used. The cell line was cultured using RPMI-1640 medium (U937, Jurkat, AGS, A549) or DMEM (Hs746T) medium containing 10% fetal bovine serum. Welgene products were used as the medium, and hyclone products were used for fetal bovine serum, and 1% of antibiotics for cell culture from Gibco were used as the culture medium.

For assay [2], the system named is acute myeloid leukemia cell line U937. In words: Cancer cell proliferation inhibitory activity evaluation 2 (CCK-8), U937. It counts as cell-based. The settings on record: Homo sapiens, U-937; 10 μM, 72 hours, CCK-8 (Table 3); read-out: Cancer cell proliferation inhibitory activity U937. As for the experimental part:
as §1

The subject of assay [3] is gastric cancer cell line AGS. In words: Cancer cell proliferation inhibitory activity evaluation 2 (CCK-8), AGS. It counts as cell-based. The settings on record: Homo sapiens; 10 μM, 72 hours, CCK-8; read-out: Cancer cell proliferation inhibitory activity AGS. How it is done:
as §1

Another assay deals with MLK1 (Homo sapiens (Human), UniProt P80192). In words: Evaluation of inhibitory activity of enzyme units, MLK1 ([γ-33P]-ATP filter assay). It counts as biochemical.
MLK1, sequence (P80192 whole entry, looked up): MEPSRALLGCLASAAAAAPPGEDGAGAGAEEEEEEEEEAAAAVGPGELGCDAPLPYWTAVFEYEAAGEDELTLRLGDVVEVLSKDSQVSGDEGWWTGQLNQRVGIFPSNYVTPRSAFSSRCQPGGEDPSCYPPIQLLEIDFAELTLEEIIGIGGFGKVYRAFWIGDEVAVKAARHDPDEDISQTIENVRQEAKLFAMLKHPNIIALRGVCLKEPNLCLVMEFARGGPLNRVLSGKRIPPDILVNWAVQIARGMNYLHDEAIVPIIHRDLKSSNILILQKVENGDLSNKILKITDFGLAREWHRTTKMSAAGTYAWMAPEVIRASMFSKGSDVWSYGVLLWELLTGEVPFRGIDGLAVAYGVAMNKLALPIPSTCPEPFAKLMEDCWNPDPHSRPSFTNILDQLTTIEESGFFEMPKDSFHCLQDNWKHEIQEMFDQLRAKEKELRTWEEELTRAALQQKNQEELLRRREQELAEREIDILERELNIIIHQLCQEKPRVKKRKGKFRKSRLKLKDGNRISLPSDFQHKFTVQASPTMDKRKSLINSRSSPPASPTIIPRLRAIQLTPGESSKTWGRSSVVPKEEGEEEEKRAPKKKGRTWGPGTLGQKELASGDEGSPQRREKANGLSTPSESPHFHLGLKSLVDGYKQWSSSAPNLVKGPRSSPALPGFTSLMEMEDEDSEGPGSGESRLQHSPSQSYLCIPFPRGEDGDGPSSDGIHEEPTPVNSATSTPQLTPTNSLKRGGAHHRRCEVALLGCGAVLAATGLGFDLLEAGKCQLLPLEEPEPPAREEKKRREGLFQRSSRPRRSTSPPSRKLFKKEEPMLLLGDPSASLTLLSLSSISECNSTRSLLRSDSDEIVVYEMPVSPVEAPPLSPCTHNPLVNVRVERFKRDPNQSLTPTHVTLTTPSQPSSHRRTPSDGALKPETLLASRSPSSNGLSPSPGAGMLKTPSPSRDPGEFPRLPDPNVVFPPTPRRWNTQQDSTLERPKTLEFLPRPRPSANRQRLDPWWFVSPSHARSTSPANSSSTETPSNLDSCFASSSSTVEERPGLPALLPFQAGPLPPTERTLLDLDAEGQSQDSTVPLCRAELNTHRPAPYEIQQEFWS

A word on the IC50: it is the concentration that inhibits the measured activity by half. Consider `CCS(=O)(=O)N1CC[C@H](Nc2c(Br)cnc3nc(-c4cc(C)n(-c5cccc(C(=O)NCCN(C)C)c5C)c4C)[nH]c23)C1` [Example 82, 3-(3-(6-bromo-7-(((S)-1-(ethylsulfonyl)pyrrolidine-3-yl)amino)-1H-imidazo[4,5-b]pyridine-2-yl)-2,5-dimethyl-1H-pyrrol-1-yl)-N-(2-(dimethylamino)ethyl)-2-methylbenzamide], for which the IC50 at MLK3 was 14 nM.

Consider `CCS(=O)(=O)N1CC[C@H](Nc2c(Br)cnc3[nH]c(-c4cc(C)n(-c5ccc(C(=O)N6CCN(C)CC6)cc5C)c4C)nc23)C1` [Example 97, (4-(3-(6-bromo-7-(((S)-1-(ethylsulfonyl)pyrrolidine-3-yl)amino)-3H-imidazo[4,5-b]pyridine-2-yl)-2,5-dimethyl-1H-pyrrol-1-yl)-3-methylphenyl) (4-methylpiperazine-1-yl) methanone], for which the IC50 at MLK3 was 20 nM.

As for `COCCOc1ccc(Nc2c(Br)cnc3[nH]c(-c4cc(C)n(-c5cccc(S(N)(=O)=O)c5)c4C)nc23)cc1` [Example 46, 3-(3-(6-bromo-7-((4-(2-methoxyethoxy)phenyl)amino)-3H-imidazo[4,5-b]pyridine-2-yl)-2,5-dimethyl-1H-pyrrol-1-yl)benzenesulfonamide], the values for the inhibition at 10 µM in assay [1], in assay [2] and in assay [3] were more than 50%, 10 to 50% and 10 to 50%, respectively.

As for `COCCOc1cccc(-n2c(C)cc(-c3nc4ncc(Br)c(Nc5cccc(S(N)(=O)=O)c5)c4[nH]3)c2C)c1` [Example 42, 3-((6-bromo-2-(1-(3-(2-methoxyethoxy)phenyl)-2,5-dimethyl-1H-pyrrol-3-yl)-1H-imidazo[4,5-b]pyridine-7-yl)amino)benzenesulfonamide], the inhibition at 10 µM in assay [1] is more than 50%; in assay [2] it was 10 to 50%; in assay [3] it was more than 50%. In addition, the IC50 at MLK3 is 83 nM.

As to `Cc1cc(NS(C)(=O)=O)ccc1-n1c(C)cc(-c2nc3c(Nc4cccc(S(N)(=O)=O)c4)c(Br)cnc3[nH]2)c1C` [Example 32, 3-((6-bromo-2-(2,5-dimethyl-1-(2-methyl-4-(methylsulfonamido)phenyl)-1H-pyrrol-3-yl)-3H-imidazo[4,5-b]pyridine-7-yl)amino)benzenesulfonamide], the inhibition at 10 µM in assay [1], in assay [2] and in assay [3] was 10 to 50% each time. The IC50 on MLK3 came to 32 nM.

Take `CCS(=O)(=O)N1CC[C@H](Nc2c(Br)cnc3[nH]c(-c4cc(C)n(-c5ccc(S(=O)(=O)N6CCOCC6)cc5)c4C)nc23)C1` [Example 10, (S)-6-bromo-2-(2,5-dimethyl-1-(4-(morpholinosulfonyl)phenyl)-1H-pyrrol-3-yl)-N-(1-(ethylsulfonyl)pyrrolidine-3-yl)-3H-imidazo[4,5-b]pyridine-7-amine]: the values for the inhibition at 10 µM in assay [1], in assay [2] and in assay [3] were more than 50%, 10 to 50% and 10 to 50%, respectively. Also, the IC50 at MLK3 came to 7 nM.

Take `Cc1c(NS(C)(=O)=O)cccc1-n1c(C)cc(-c2nc3c(Nc4cccc(S(N)(=O)=O)c4)c(Br)cnc3[nH]2)c1C` [Example 34, 3-((6-bromo-2-(2,5-dimethyl-1-(2-methyl-3-(methylsulfonamido)phenyl)-1H-pyrrol-3-yl)-3H-imidazo[4,5-b]pyridine-7-yl)amino)benzenesulfonamide]: the inhibition at 10 µM in assay [1], in assay [2] and in assay [3] was 10 to 50% in each case. Moreover, the IC50 at MLK3 was 41 nM.

As to `CCS(=O)(=O)N1CC[C@H](Nc2c(Br)cnc3[nH]c(-c4cc(C)n(-c5ccc6c(c5)OCO6)c4C)nc23)C1` [Example 49, (S)-2-(1-(benzo[d][1,3]dioxole-5-yl)-2,5-dimethyl-1H-pyrrol-3-yl)-6-bromo-N-(1-(ethylsulfonyl)pyrrolidine-3-yl)-3H-imidazo[4,5-b]pyridine-7-amine], the IC50 is 50 nM at MLK1 and 15 nM on MLK3.

With `CCS(=O)(=O)N1CC[C@H](Nc2c(Br)cnc3nc(-c4cc(C)n(-c5cccc(NC(=O)CCN(C)C)c5C)c4C)[nH]c23)C1` [Example 86, N-(3-(3-(6-bromo-7-(((S)-1-(ethylsulfonyl)pyrrolidine-3-yl)amino)-1H-imidazo[4,5-b]pyridine-2-yl)-2,5-dimethyl-1H-pyrrol-1-yl)-2-methylphenyl)-3-(dimethylamino) propanamide], the figures for the IC50 against MLK1 and at MLK3 were 15 nM and 7 nM, respectively.

Consider `Cc1cc(-c2nc3c(Nc4cccc(S(N)(=O)=O)c4)c(Br)cnc3[nH]2)c(C)n1-c1cccc(S(=O)(=O)N2CCOCC2)c1` [Example 30, 3-((6-bromo-2-(2,5-dimethyl-1-(3-(morpholinosulfonyl)phenyl)-1H-pyrrol-3-yl)-3H-imidazo[4,5-b]pyridine-7-yl)amino)benzenesulfonamide], for which the inhibition at 10 µM is 10 to 50% in assay [1], less than 10% in assay [2] and 10 to 50% in assay [3].

On to `Cc1cc(-c2nc3c(Nc4cccc(S(N)(=O)=O)c4)c(Br)cnc3[nH]2)c(C)n1-c1cccc(C(=O)N2CCOCC2)c1` [Example 28, 3-((6-bromo-2-(2,5-dimethyl-1-(3-(morpholine-4-carbonyl)phenyl)-1H-pyrrol-3-yl)-3H-imidazo[4,5-b]pyridine-7-yl)amino)benzenesulfonamide], for which the inhibition at 10 µM was 10 to 50% in assay [1], less than 10% in assay [2] and 10 to 50% in assay [3]. Moreover, on MLK3, the IC50 came to 57 nM.

With `CCS(=O)(=O)N1CC[C@H](Nc2c(Br)cnc3[nH]c(-c4cc(C)n(-c5ccc(C(=O)N(C)CCN(C)C)cc5)c4C)nc23)C1` [Example 63, (S)-4-(3-(6-bromo-7-((1-(ethylsulfonyl)pyrrolidine-3-yl)amino)-3H-imidazo[4,5-b]pyridine-2-yl)-2,5-dimethyl-1H-pyrrol-1-yl)-N-(2-(dimethylamino)ethyl)-N-methylbenzamide], on MLK3, the concentration for half-maximal inhibition (IC50) was determined as 14 nM.

As to `CCS(=O)(=O)N1CC[C@H](Nc2c(Br)cnc3nc(-c4cc(C)n(-c5cccc(NC(=O)CN6CCOCC6)c5C)c4C)[nH]c23)C1` [Example 85, N-(3-(3-(6-bromo-7-(((S)-1-(ethylsulfonyl)pyrrolidine-3-yl)amino)-1H-imidazo[4,5-b]pyridine-2-yl)-2,5-dimethyl-1H-pyrrol-1-yl)-2-methylphenyl)-2-morpholinoacetamide], the IC50 on MLK3 was found to be 11 nM.

Take `CCS(=O)(=O)N1CC[C@H](Nc2c(Br)cnc3nc(-c4cc(C)n(-c5cccc(NC(=O)CN(C)C)c5C)c4C)[nH]c23)C1` [Example 84, N-(3-(3-(6-bromo-7-(((S)-1-(ethylsulfonyl)pyrolidine-3-yl)amino)-1H-imidazo[4,5-b]pyridine-2-yl)-2,5-dimethyl-1H-pyrrol-1-yl)-2-methylphenyl)-2-(dimethylamino) acetamide]: on MLK3, the IC50 was found to be 8 nM.

For `CCS(=O)(=O)N1CC[C@H](Nc2c(Br)cnc3[nH]c(-c4cc(C)n(-c5ccc(C(=O)NCCN(C)C)cc5)c4C)nc23)C1` [Example 62, (S)-4-(3-(6-bromo-7-((1-(ethylsulfonyl)pyrrolidine-3-yl)amino)-3H-imidazo[4,5-b]pyridine-2-yl)-2,5-dimethyl-1H-pyrrol-1-yl)-N-(2-(dimethylamino)ethyl)benzamide], on MLK3, the IC50 amounted to 17 nM.

On to `Cc1cc(-c2nc3c(Nc4cccc(S(N)(=O)=O)c4)c(Br)cnc3[nH]2)c(C)n1-c1ccc(S(=O)(=O)N2CCOCC2)cc1` [Example 29, 3-((6-bromo-2-(2,5-dimethyl-1-(4-(morpholinosulfonyl)phenyl)-1H-pyrrol-3-yl)-3H-imidazo[4,5-b]pyridine-7-yl)amino)benzenesulfonamide], for which the inhibition at 10 µM in assay [1] was 10 to 50%; in assay [2], less than 10%; in assay [3], 10 to 50%. Also, the IC50 at MLK3 turned out to be 25 nM.

Regarding `CCS(=O)(=O)N1CC[C@H](Nc2c(Br)cnc3nc(-c4cc(C)n(-c5cc(C(=O)N6CCN(C)CC6)ccc5C)c4C)[nH]c23)C1` [Example 92, (3-(3-(6-bromo-7-(((S)-1-(ethylsulfonyl)pyrrolidine-3-yl)amino)-1H-imidazo[4,5-b]pyridine-2-yl)-2,5-dimethyl-1H-pyrrol-1-yl)-4-methylphenyl) (4-methylpiperazine-1-yl) methanone], the IC50 on MLK3 amounted to 26 nM.

For `Cc1cc(-c2nc3ncc(Br)c(Nc4cccc(S(N)(=O)=O)c4)c3[nH]2)c(C)n1-c1ccccc1` [Example 43, 3-((6-bromo-2-(2,5-dimethyl-1-phenyl-1H-pyrrol-3-yl)-1H-imidazo[4,5-b]pyridine-7-yl)amino)benzenesulfonamide], the inhibition at 10 µM in assay [1] was more than 50%; in assay [2] it was 10 to 50%; in assay [3], 10 to 50%. Besides, at MLK3, the IC50 was 85 nM.

Regarding `Cc1cc(-c2nc3c(Nc4cccc(S(N)(=O)=O)c4)c(Br)cnc3[nH]2)c(C)n1-c1ccc2c(c1)OCO2` [Example 41, 3-((2-(1-(benzo[d][1,3]dioxole-5-yl)-2,5-dimethyl-1H-pyrrol-3-yl)-6-bromo-3H-imidazo[4,5-b]pyridine-7-yl)amino)benzenesulfonamide], the inhibition at 10 µM in assay [1], in assay [2] and in assay [3] was 10 to 50% in each case. The IC50 at MLK3 stood at 70 nM.
